The text below walks through data of publication PMC12375981 (Protein Science : A Publication of the Protein Society, 2025).

Bounds are passed on as bounds.

Assay [1] has as its system E166V 3CL^pro. The following applies: cited from earlier work.
In assay [2] the test system is E166V mutation of 3CL^pro. The following applies: cited from earlier work.
The target in assay [3] is DM (S1D + A191E) 3CL^pro (Severe acute respiratory syndrome coronavirus 2, UniProt P0DTD1, A3454E/S3264D). Type of assay: binding, SARS‐CoV‐2.
Assay [4] concerns the target T1, S1D 3CL^pro (Severe acute respiratory syndrome coronavirus 2, UniProt P0DTD1, S3264D). Type of assay: binding, SARS‐CoV‐2.
The target of assay [5] is A191E 3CL^pro (Severe acute respiratory syndrome coronavirus 2, UniProt P0DTD1, A3454E). The format is biochemical, SARS‐CoV‐2.
The target of assay [6] is S1D + A191E 3CL^pro (double mutant, DM) (Severe acute respiratory syndrome coronavirus 2, UniProt P0DTD1, A3454E/S3264D). The format is biochemical, SARS‐CoV‐2.
Assay [7] has as its target T1, S1D 3CL^pro. The format is biochemical, SARS‐CoV‐2.

In the case of `CC(C)(C)[C@H](NC(=O)C(F)(F)F)C(=O)N1C[C@H]2[C@@H]([C@H]1C(=O)N[C@H](C#N)C[C@@H]1CCNC1=O)C2(C)C` [nirmatrelvir], the “increase in K i” value in assay [1] is on record as “more than 7000 fold”. The “increase in EC50” value in assay [2] was “up to 255 fold”.
As for `COc1cccc2[nH]c(C(=O)N[C@@H](CC(C)C)C(=O)N[C@@H](C[C@@H]3CCNC3=O)C(=O)COP(=O)(O)O)cc12` [lufotrelvir], in assay [3], the “effect of inhibitor on monomer/dimer peaks” value was “eliminated the monomeric peaks”. The “effect of inhibitor on monomer/dimer peaks” value in assay [4] is “eliminated the monomeric peaks”. In addition, the “reduction in affinity (K i) compared to the WT” value in assay [5] amounted to 6.4 fold. Also, in assay [6], the “K D” value is on record as 140 ± 10 nM, the “K D f c” value amounted to 2300 ± 300 nM, the “K D/f c” value is reported as 9 ± 1 nM and the f c is listed as 16 ± 1. For the same compound, in assay [6], the “inhibitor concentration at which the mutant is more active than the WT” value was at least 10 nM and the “reduction in affinity for the dimer (K i) compared to the WT” value is reported as 26 fold. Besides, in assay [7], the “K D” value was determined as 290 ± 30 nM, the “K D f c” value came to 6000 ± 700 nM, the “K D/f c” value came to 13 ± 2 nM and the f c is on record as 21 ± 1. Also, in assay [7], the “inhibitor concentration at which the mutant is more active than the WT” value is “greater than 10 nM”, the “inhibitor concentration for full inhibition” value is listed as “exceeded 1 μM” and the “reduction in affinity (K i) compared to the WT” value was 3.3 fold.
